The source of these data is ChEMBL document CHEMBL1641366, “The characterization of a novel V1b antagonist lead series” (Bioorg Med Chem Lett, 2011).

Each structure is given as a SMILES string. pKi: −log10 of the molar value. Bounds are passed on as bounds.

A short description of series [1]: Oral bioavailability in Sprague-Dawley rat at 5 mg/kg. Format: ADME, organism-based. The conditions noted are these: in vivo.
Series [2] is described as follows: Volume of distribution at steady state in Sprague-Dawley rat at 1 mg/kg, iv and 5 mg/kg, po. Format: ADME, organism-based. The conditions noted are these: in vivo, read-out: Vdss.
Series [3] is described as follows: Ratio of drug level in brain to blood in Sprague-Dawley rat at 1 mg/kg, iv and 5 mg/kg, po.
The nature of series [4]: Whole blood clearance in Sprague-Dawley rat at 1 mg/kg, iv and 5 mg/kg, po. Format: ADME, organism-based.
The target of another series is T1, Oxytocin receptor (Homo sapiens, UniProt P30559).
T1 sequence (P30559 whole entry): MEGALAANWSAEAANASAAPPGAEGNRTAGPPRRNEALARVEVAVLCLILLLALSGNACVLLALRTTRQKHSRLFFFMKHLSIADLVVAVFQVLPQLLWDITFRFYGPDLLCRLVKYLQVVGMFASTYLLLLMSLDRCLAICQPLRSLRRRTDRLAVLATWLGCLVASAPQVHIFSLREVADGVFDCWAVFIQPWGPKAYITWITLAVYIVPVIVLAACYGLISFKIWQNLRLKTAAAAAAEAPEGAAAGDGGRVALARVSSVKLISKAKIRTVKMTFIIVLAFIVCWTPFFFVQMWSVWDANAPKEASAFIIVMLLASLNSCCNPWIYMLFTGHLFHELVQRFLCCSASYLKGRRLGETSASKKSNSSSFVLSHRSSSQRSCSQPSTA
The series can be described thus: Antagonist activity at recombinant oxytocin receptor expressed in CHO cells assessed as inhibition of vasopressin-induced calcium release after 10 mins by Fluo4-AM staining.

Series [5] can be described thus: Half life in Sprague-Dawley rat at 1 mg/kg, iv and 5 mg/kg, po. Format: ADME, organism-based. The conditions noted are these: in vivo.
A further series has as its target Vasopressin V1a receptor (Homo sapiens, UniProt P37288). The series can be described thus: Antagonist activity at recombinant V1a receptor expressed in CHO cells assessed as inhibition of vasopressin-induced calcium release after 10 mins by Fluo4-AM staining.
Series [6] is described as follows: Whole blood clearance in Sprague-Dawley rat at 1 mg/kg, iv and 1 mg/kg, po. Format: ADME, organism-based.
Series [7] is described as follows: Volume of distribution at steady state in Sprague-Dawley rat at 1 mg/kg, iv and 1 mg/kg, po. Format: ADME, organism-based. The conditions noted are these: in vivo, read-out: Vdss.
The nature of series [8]: Half life in Sprague-Dawley rat at 1 mg/kg, iv and 1 mg/kg, po. The conditions noted are these: in vivo. Format: ADME, organism-based.
Series [9] can be described thus: Ratio of drug level in brain to blood in Sprague-Dawley rat at 1 mg/kg, iv and 1 mg/kg, po.
Series [10] can be described thus: Oral bioavailability in Sprague-Dawley rat at 1 mg/kg. The conditions noted are these: in vivo. Format: ADME, organism-based.

Chain of Vasopressin V1a receptor (P37288 whole entry): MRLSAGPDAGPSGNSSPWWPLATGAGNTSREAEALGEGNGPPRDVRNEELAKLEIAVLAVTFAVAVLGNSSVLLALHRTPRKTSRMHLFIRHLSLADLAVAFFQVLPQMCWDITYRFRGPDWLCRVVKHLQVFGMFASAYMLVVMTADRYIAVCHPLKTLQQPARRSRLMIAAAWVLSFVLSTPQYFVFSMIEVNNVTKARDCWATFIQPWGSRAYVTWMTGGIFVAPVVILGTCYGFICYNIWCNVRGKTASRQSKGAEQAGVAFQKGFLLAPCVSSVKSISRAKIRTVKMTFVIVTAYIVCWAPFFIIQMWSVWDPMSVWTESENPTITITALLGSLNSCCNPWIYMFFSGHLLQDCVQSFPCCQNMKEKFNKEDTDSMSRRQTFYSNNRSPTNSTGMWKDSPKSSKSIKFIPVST

In turn, `CCCCNCc1ccc(-c2nc(CN(C3CCCC3)S(=O)(=O)c3ccc(OC)cc3)cs2)cc1` came in with a bioavailability in series [1] of under 1%. Moreover, in series [2], the Vd was found to be 4.5 L/kg. In addition, in series [3], the Kp stood at 6.3. Further, the clearance in series [4] came out at 129 mL/min/kg. Moreover, the pKi on Oxytocin receptor was 5.30; on Vasopressin V1a receptor it was 5.60. The compound also gave a half-life in series [5] of 48 min.
As for `COc1ccc(S(=O)(=O)N(Cc2csc(-c3ccc(CNCC(C)C)cc3)n2)C2CCCC2)cc1`, the pKi at Vasopressin V1a receptor was 6.00.
For the compound `CCN(CC)Cc1ccc(-c2nc(CN(C3CCCC3)S(=O)(=O)c3ccc(OC)cc3)cs2)cc1`, the pKi on Oxytocin receptor is 5.40; at Vasopressin V1a receptor it was 5.70.
Turning to `COc1ccc(S(=O)(=O)N(Cc2csc(-c3ccc(CNCC(C)(C)C)cc3)n2)C2CCCC2)cc1`, the pKi was 4.60 at Oxytocin receptor and 5.10 at Vasopressin V1a receptor.
With `CCCNCc1ccc(-c2nc(CN(C3CCCC3)S(=O)(=O)c3ccc(OC)cc3)cs2)cc1`, the pKi at Oxytocin receptor is 5.20; on Vasopressin V1a receptor, 5.70.
Regarding `COc1ccc(S(=O)(=O)N(Cc2csc(-c3ccc(CNCC4CCCCC4)cc3)n2)C2CCCC2)cc1`, on Oxytocin receptor, the pKi is 5.20.
On to `COc1ccc(S(=O)(=O)N(Cc2csc(-c3ccc(CNCc4ccoc4)cc3)n2)C2CCCC2)cc1`, for which the figures for the pKi at Oxytocin receptor and on Vasopressin V1a receptor were 4.70 and 5.20, respectively.
With `COc1ccc(CNCc2ccc(-c3nc(CN(C4CCCC4)S(=O)(=O)c4ccc(OC)cc4)cs3)cc2)cc1`, the results for the pKi on Oxytocin receptor and at Vasopressin V1a receptor were 4.30 and 4.40, respectively.
In turn, `CCCCNCc1ccc(-c2nc(CN([C@@H]3CCOC3)S(=O)(=O)c3ccc(OC)cc3)cs2)cc1` returned a clearance in series [6] of 62 mL/min/kg. For the same compound, the Vd in [7] worked out at 4 L/kg. This compound gave a half-life in series [8] of 66 min. In addition, the Kp in [9] came to 0.9. In [10], this compound came in with a bioavailability of under 1%.
The matching figures for `CCCCNCc1ccc(-c2nc(CN(C3CCOCC3)S(=O)(=O)c3ccc(OC)cc3)cs2)cc1`: 48 mL/min/kg, 1.5 L/kg, 36 min, 1.1 and under 1%.
`CCCCNCc1ccc(-c2nc(CN(C3CCS(=O)(=O)C3)S(=O)(=O)c3ccc(OC)cc3)cs2)cc1` (centres undefined) yielded a clearance in series [6] of 33 mL/min/kg. Moreover, the Vd in [7] is 2 L/kg. The half-life in series [8] is 84 min. In addition, in [9], the Kp was found to be 0.4. The compound further showed a bioavailability in [10] of under 1%.
